# Test results taken from ChEMBL document CHEMBL3108691, “Structural investigation of cycloheptathiophene-3-carboxamide derivatives targeting influenza virus polymerase assembly” (J Med Chem, 2013).
# How the values were obtained:
# [1] = Cytotoxicity against MDCK cells assessed as cell viability after 48 hrs by MTT assay; format: cell-based, Canis lupus familiaris; conditions: dog
# [2] = Cytotoxicity against HEK293 cells assessed as cell viability after 24 hrs by MTT assay; format: cell-based; conditions: human
# Influenza A virus [3] = format: functional, organism-based; conditions: A/Puerto Rico/8/1934(H1N1), MDCK, 48 h
# [4] = biological target: PA/PB1 (Influenza A virus (A/Puerto Rico/8/1934(H1N1)), UniProt P03431+P03433); experiment: Inhibition of Influenza A virus (A/Puerto Rico/8/34(H1N1)) His6-tagged PA (239 to 716) interaction with GST-tagged PB1 (1 to 25) expressed in Escherichia coli BL21 (DE3) by ELISA
# Influenza A virus [5] = format: functional, organism-based; conditions: A/Padova/72/2011(H1N1), MDCK, 48 h
# Influenza A virus [6] = format: functional, organism-based; conditions: A/Padova/253/2011(H1N1), MDCK, 48 h
# cells = conditions: Influenza A virus, HEK293, 24 h
# Influenza B virus = experiment: microbe, parasite or virus in culture; conditions: B/Lee/1940, MDCK, 48 h
# Influenza A virus [7] = format: functional, organism-based; conditions: A/Puerto Rico/8/1934(H1N1), MDCK, 12 h
# Influenza A virus [8] = format: functional, organism-based; conditions: A/Padova/30/2011(H1N1), MDCK, 48 h
# Influenza A virus [9] = format: functional, organism-based, Influenza A virus (A/Wisconsin/67/2005(H3N2)); conditions: MDCK, 48 h
Structure (SMILES),CC50 at 48 h [1],CC50 at 24 h [2],EC50 (Influenza A virus [3]),IC50 [4],also measured
CCOC(=O)c1c(NC(=O)c2ccccc2Cl)sc2c1CCCCC2,> 250 µM,> 250 µM,94 µM,> 200 µM,–
O=C(CCc1ccc(Cl)cc1)Nc1sc2c(c1C(=O)Nc1ccccn1)CCCCC2,–,–,–,> 200 µM,–
CCOC(=O)c1c(NC(=O)c2ccc(Cl)cc2)sc2c1CCCCC2,> 250 µM,> 250 µM,89 µM,> 200 µM,–
O=C(Nc1sc2c(c1C(=O)Nc1ccccn1)CCCCC2)c1ccc(Cl)cc1,–,–,–,32 µM,–
O=C(Nc1sc2c(c1C(=O)Nc1ccccn1)CCCCC2)c1ccc(Cl)cc1Cl,–,–,–,> 200 µM,–
NC(=O)c1ncn([C@@H]2O[C@H](CO)[C@@H](O)[C@H]2O)n1 [RIBAVIRIN],> 250 µM,> 250 µM,8 µM,–,EC50 (Influenza A virus [5]): 6 µM; EC50 (Influenza A virus [6]): 11 µM; EC50 (cells): 15 µM; EC50 (Influenza B virus): 6 µM; EC50 (Influenza A virus [7]): 2 µM; EC50 (Influenza A virus [8]): 7 µM; EC50 (Influenza A virus [9]): 12 µM
O=C(Cc1ccc(F)cc1)Nc1sc2c(c1C(=O)Nc1ccccn1)CCCCC2,> 250 µM,250 µM,16 µM,> 200 µM,–
O=C(Nc1sc2c(c1C(=O)Nc1ccccn1)CCCCC2)c1ccc(F)cc1Cl,–,–,–,> 200 µM,–
O=C(Nc1sc2c(c1C(=O)O)CCCCC2)c1ccccc1Cl,–,–,–,> 200 µM,–
O=C(Cc1ccc2ncccc2c1)Nc1sc2c(c1C(=O)Nc1ccccn1)CCCCC2,> 250 µM,> 250 µM,58 µM,48 µM,–
Nc1sc2c(c1C(=O)Nc1ccccn1)CCCCC2,–,–,–,35 µM,–
O=C(Nc1sc2c(c1C(=O)Nc1ccccn1)CCCCC2)c1ccccc1Cl,–,–,–,134 µM,–
O=C(Nc1sc2c(c1C(=O)O)CCC2)c1ccccc1F,> 250 µM,> 250 µM,77 µM,159 µM,–
O=C(Nc1sc2c(c1C(=O)O)CCCCC2)c1ccc(F)cc1,–,–,–,> 200 µM,–
O=C(Nc1sc2c(c1C(=O)Nc1ccccn1)CCCCC2)c1ccc(F)cc1,–,–,–,99 µM,–
CCOC(=O)c1c(NC(=O)c2ccc(F)cc2)sc2c1CCCCC2,> 250 µM,> 250 µM,91 µM,> 200 µM,–
CCOC(=O)c1c(NC(=O)c2ccc(OC)cc2)sc2c1CCCCC2,> 250 µM,> 250 µM,95 µM,> 200 µM,–
O=C(CCc1ccc(F)cc1)Nc1sc2c(c1C(=O)Nc1ccccn1)CCCCC2,–,–,–,> 200 µM,–
CCOC(=O)c1c(NC(=O)c2ccccc2F)sc2c1CCC2,> 250 µM,> 250 µM,> 100 µM,> 200 µM,–

Structure (SMILES),CC50 at 48 h [1],CC50 at 24 h [2],EC50 (Influenza A virus [3]),IC50 [4],also measured
O=C(Nc1ccccn1)c1c(NC(=O)C2CCCCC2)sc2c1CCCCC2,–,–,–,> 200 µM,–
NC(=O)c1c(NC(=O)c2ccccc2F)sc2c1CCC2,–,–,–,> 200 µM,–
O=C(CCc1ccccc1)Nc1sc2c(c1C(=O)Nc1ccccn1)CCCCC2,–,–,–,> 200 µM,–
CCOC(=O)c1c(NC(=O)c2ccccc2F)sc2c1CCCCC2,> 250 µM,> 250 µM,78 µM,200 µM,–
O=C(CC1CCCCC1)Nc1sc2c(c1C(=O)Nc1ccccn1)CCCCC2,–,–,–,> 200 µM,–
O=C(Nc1sc2c(c1C(=O)Nc1ccccn1)CCC2)c1ccccc1F,–,–,–,> 200 µM,–
O=C(Cc1ccccc1)Nc1sc2c(c1C(=O)Nc1ccccn1)CCCCC2,> 250 µM,220 µM,19 µM,> 200 µM,–
O=C(Nc1sc2c(c1C(=O)O)CCCCC2)c1ccc(Cl)cc1,–,–,–,> 200 µM,–
O=C(Nc1sc2c(c1C(=O)Nc1ccccn1)CCCC2)c1ccccc1F,–,–,–,> 200 µM,–
O=C(Nc1sc2c(c1C(=O)O)CCCCC2)c1ccccc1F,> 250 µM,> 250 µM,76 µM,200 µM,–
O=C(Nc1sc2c(c1C(=O)Nc1ccccn1)CCCCC2)c1cccc(F)c1,–,–,–,> 200 µM,–
COc1ccc(C(=O)Nc2sc3c(c2C(=O)O)CCCCC3)cc1,–,–,–,> 200 µM,–
NC(=O)c1c(NC(=O)c2ccccc2F)sc2c1CCCCC2,–,–,–,> 200 µM,–
CSCC[C@H](N)C(=O)N[C@@H](CC(=O)O)C(=O)N[C@H](C(=O)N[C@@H](CC(N)=O)C(=O)N1CCC[C@H]1C(=O)N[C@H](C(=O)N[C@@H](CC(C)C)C(=O)N[C@@H](CC(C)C)C(=O)N[C@@H](Cc1ccccc1)C(=O)N[C@@H](CC(C)C)C(=O)N[C@@H](CCCCN)C(=O)N[C@H](C(=O)N1CCC[C@H]1C(=O)N[C@@H](C)C(=O)N[C@@H](CCC(N)=O)C(=O)O)C(C)C)[C@@H](C)O)C(C)C,> 100 µM,> 100 µM,40 µM,35 µM,–
O=C(Nc1sc2c(c1C(=O)Nc1ccccn1)CCCCC2)c1ccccc1,–,–,–,87 µM,–
O=C(Cc1ccc(Cl)cc1)Nc1sc2c(c1C(=O)Nc1ccccn1)CCCCC2,> 250 µM,> 250 µM,19 µM,> 200 µM,–
COc1c(CC(=O)Nc2sc3c(c2C(=O)Nc2ccccn2)CCCCC3)sc2ccccc12,> 250 µM,> 250 µM,61 µM,90 µM,EC50 (cells): > 100 µM; EC50 (Influenza A virus [7]): 6 µM
NC(=O)c1c(NC(=O)c2ccccc2F)sc2c1CCCC2,118 µM,31 µM,> 100 µM,> 200 µM,–
